Earlier results, collected in EP4520317A1, “TRANSDERMAL THERAPEUTIC SYSTEM OF LUMATEPERONE” (Luye Pharma Switzerland AG, priority 2023, dated 2025).

Conditions: in vivo

oral bioavailability: about 4.4%
SMILES: CN1CCN2c3c(cccc31)[C@@H]1CN(CCCC(=O)c3ccc(F)cc3)CC[C@@H]12 [lumateperone, 1-(4-fluoro-phenyl)-4-((6bR, 10aS)-3-methyl-2,3,6b,9,10,10a-hexahydro-1H,7H-pyrido[3',4':4,5]pyrrolo[1,2,3-de]quinoxalin-8-yl)-butan-1-one]
